Test results as given in patent EP0119428A2, “Biscarboxamides for treating diseases, and process for their preparation” (BAYER AG, priority 1983, dated 1984).

Tested on: spontan hypertensiven Ratte
Assay: Blood pressure lowering in the spontaneously hypertensive rat after oral dosing
Format: in vivo
Details: lowest dose that still lowers blood pressure by at least 15 mm Hg, read-out: niederste noch wirksame, orale Dosis
From the text: Die in der folgenden Tabelle angeführten Verbindungen senken an der spontan hypertensiven Ratte den Blutdruck um mindestens 15 mm Hg. Angegeben ist die niederste noch wirksame, orale Dosis.

SMILES | minimal effective dose
CC(NC(=O)c1ccccc1C(=O)Nc1ccccc1)C(C)(C)C (stereo not drawn) [Beispiel 12, N-Phenyl-N'-(1,2,2-trimethylpropyl)-phtalamid] | 10 mg/kg
CCOc1ccccc1NC(=O)c1ccccc1C(=O)NC(C)C(C)(C)C (stereo not drawn) [Beispiel 13, N-(2-Ethoxyphenyl)-N'-(1,2,2-trimethylpropyl)-phtalamid] | 10 mg/kg
CC(NC(=O)c1ccccc1C(=O)Nc1cccnc1)C(C)(C)C (stereo not drawn) [Beispiel 26, N-(3-Pyridyl)-N'-(1,2,2-trimethylpropyl)-phtalamid] | 3 mg/kg
